Results on 72 compounds are retold here after patent US20240246941A1, “SUBSTITUTED 4-(3-AMINOPROP-1-YL)AMINOQUINOLINE ANALOGS AS MODULATORS OF MELANOMA-ASSOCIATED ANTIGEN 11 UBIQUITIN LIGASE” (ST. JUDE CHILDREN'S RESEARCH HOSPITAL, INC., priority 2020, published 2024).

Sequence of MAGE-A11:PCF11 (P43364 218-429): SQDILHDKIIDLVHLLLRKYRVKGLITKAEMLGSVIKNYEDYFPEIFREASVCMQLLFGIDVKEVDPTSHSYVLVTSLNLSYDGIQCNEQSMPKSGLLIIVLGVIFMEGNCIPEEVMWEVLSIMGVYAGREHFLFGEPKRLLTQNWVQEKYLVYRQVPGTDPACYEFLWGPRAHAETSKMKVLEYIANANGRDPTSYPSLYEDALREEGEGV

The first assay has as its target MAGE-A11:PCF11 (Homo sapiens (Human), UniProt P43364). The assay is described as follows: TR-FRET single point screening at 15 μM. The format is binding. The arrangement: unit not given here. The following applies: single point TR-FRET screening at 15 μM against MAGE-A11:PCF11. In short, it runs like this: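 Competition TR-FRET: compounds at final 15 μM mixed with 200 nM FAM-PCF11_4, 5 nM GST-MAGEA11 and 5 nM Tb-anti-GST in Tris pH 7.5/MgCl2/BSA/DTT buffer, room temperature, 90 min. Emission ratio 520/490 nm (340 nm excitation) expressed as % inhibition relative to positive and negative controls.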
For orientation: TR-FRET usually uses a lanthanide donor and a delayed reading to cut background.
Take `COc1ccc(N2CCN(c3c(S(=O)(=O)c4ccccc4)cnc4ccc(OC)cc34)CC2)cc1` [SJ000117071]: the TR-FRET signal was −32.67.

As to `CCOC(=O)c1cnc2c(C(F)(F)F)cccc2c1NCCN1CCOCC1` [SJ000281260], the TR-FRET signal stood at 0.8341.

For `CCc1ccc(S(=O)(=O)c2cnc3ccccc3c2N2CCN(c3ccccc3F)CC2)cc1` [SJ000117079], the TR-FRET signal is −56.58.

The compound `COc1cccc(CN(CCCCNc2ccnc3cc(Cl)ccc23)Cc2ccccc2)c1O` [SJ000312694] came in with a TR-FRET signal of 7.676.

With `Clc1ccc2c(NCCCCN(Cc3ccccc3)Cc3nccs3)ccnc2c1` [SJ000520448], the TR-FRET signal is −1.698.

As for `CCOC(=O)c1cnc2ccc(OCC)cc2c1NCCN1CCOCC1` [SJ000027289], the TR-FRET signal amounted to 5.291.

On to `CCOc1ccc2ncc(S(=O)(=O)c3ccc(C)cc3)c(N3CCN(c4ccccc4)CC3)c2c1` [SJ000117049], for which the TR-FRET signal is on record as −45.32.

In the case of `Clc1ccc2c(NC3CCN(CC4CC4)CC3)ccnc2c1` [SJ000357481], the TR-FRET signal stood at 3.973.

With `CCCCNCCCNc1c2ccc(Cl)cc2nc2ccc(OC)cc12` [SJ000520995], the TR-FRET signal is −405.5.

For `COc1ccc2nc3cc(Cl)ccc3c(NCCCNCc3ccoc3)c2c1` [SJ000520916], the TR-FRET signal is −299.4.

`COc1ccc2nc3cc(Cl)ccc3c(NCCCNCc3ccccn3)c2c1` [SJ000523024]: the TR-FRET signal is listed as −255.3.

Consider `Clc1ccc2c(NCCCCN(Cc3ccccc3)Cc3ccc4[nH]ccc4c3)ccnc2c1` [SJ000520434], for which the TR-FRET signal was determined as 69.44.

Regarding `Clc1ccc2c(NC3CCN(Cc4ccc(Br)o4)CC3)ccnc2c1` [SJ000357512], the TR-FRET signal was −4.381.

Take `CCOc1ccc2ncc(S(=O)(=O)c3ccccc3)c(N3CCN(CC)CC3)c2c1` [SJ000083959]: the TR-FRET signal was found to be 4.534.

For `O=S(=O)(c1ccccc1)c1cnc2ccc(F)cc2c1N1CCN(c2ccccc2F)CC1` [SJ000315166], the TR-FRET signal is listed as −99.06.

As to `CCC(C)CN1CCC(Nc2ccnc3cc(Cl)ccc23)CC1` (stereo not drawn) [SJ000523105], the TR-FRET signal is listed as 11.19.

As for `COc1ccccc1N1CCN(c2c(S(=O)(=O)c3ccc(C)cc3)cnc3ccccc23)CC1` [SJ000117065], the TR-FRET signal was −8.687.

`CCCN(CCCNc1c2ccc(Cl)cc2nc2ccc(OC)cc12)CCOCc1ccccc1` [SJ000522981]: the TR-FRET signal was −212.4.

Compound `Fc1ccc(CN(CCCCNc2ccnc3cc(Cl)ccc23)Cc2ccccc2)cc1F` [SJ000361197] had a TR-FRET signal of 26.09.

As for `CCCN(CCCNc1c2ccc(Cl)cc2nc2ccc(OC)cc12)Cc1scnc1C` [SJ000522976], the TR-FRET signal is −127.

As to `CCN(CC)CC(=O)Nc1c2c(nc3ccccc13)CCC2` [SJ000049655], the TR-FRET signal is 0.6542.

For the compound `Clc1ccc2c(NCCCCN(CCCc3ccccc3)Cc3ccccc3)ccnc2c1` [SJ000522729], the TR-FRET signal turned out to be 27.82.

In turn, `Fc1cccc(CN(CCCCNc2ccnc3cc(Cl)ccc23)Cc2ccccc2)c1` [SJ000361199] displayed a TR-FRET signal of 28.34.

On to `O=[N+]([O-])c1ccc(CN2CCC(Nc3ccnc4cc(Cl)ccc34)CC2)cc1` [SJ000523096], for which the TR-FRET signal is listed as −4.954.

`Cc1ccc(C)c(CN(CCCCNc2ccnc3cc(Cl)ccc23)Cc2ccccc2)c1` [SJ000361209] came in with a TR-FRET signal of 32.65.

For the compound `COc1ccc(N2CCN(c3c(S(=O)(=O)c4ccccc4)cnc4ccc(Cl)cc34)CC2)cc1` [SJ000083983], the TR-FRET signal was −17.94.

In the case of `CCc1ccc2ncc(S(=O)(=O)c3ccccc3)c(N3CCN(C)CC3)c2c1` [SJ000083946], the TR-FRET signal was −6.249.

With `CCCN(CCCCNc1ccnc2cc(Cl)ccc12)Cc1cc(F)ccc1OC` [SJ000311202], the TR-FRET signal is recorded as 5.396.

Consider `COc1ccc2nc3cc(Cl)ccc3c(NCCCNCc3ccc4c(c3)OCO4)c2c1` [SJ000361085], for which the TR-FRET signal is recorded as −363.3.

For the compound `Fc1ccccc1CN(CCCCNc1ccnc2cc(Cl)ccc12)Cc1ccccc1` [SJ000361198], the TR-FRET signal was determined as 20.78.

On to `CC(=O)Nc1ccc(S(=O)(=O)N2CCN(c3ccnc4cc(Cl)ccc34)CC2)cc1` [SJ000193862], for which the TR-FRET signal is given as −16.19.

The compound `CCCN(CCCCNc1ccnc2cc(Cl)ccc12)Cc1c(F)cccc1OC` [SJ000311203] showed a TR-FRET signal of 6.844.

In the case of `CCCN(CCCNc1c2ccc(Cl)cc2nc2ccc(OC)cc12)Cc1cccc2c1OCO2` [SJ000522979], the TR-FRET signal was −108.

As to `O=C(O)c1ccccc1CN1CCC(Nc2ccnc3cc(Cl)ccc23)CC1` [SJ000523098], the TR-FRET signal was −2.194.

Turning to `COc1ccc2nc3cc(Cl)ccc3c(NCCCNCc3cc(OC(F)(F)F)ccc3OC)c2c1` [SJ000521001], the TR-FRET signal is given as −231.8.

The assay is the same for the next values; noted with them: single point TR-FRET screening of quinoline compounds against MAGE-A11:PCF11; 15 μM.
For the compound `Clc1ccc2c(NCCCNCc3ccsc3)ccnc2c1` [SJ000523052], the TR-FRET signal worked out at 15.25.

For the compound `COc1ccc2nc3cc(Cl)ccc3c(NCCCNCc3c(Cl)ccc(Cl)c3Cl)c2c1` [SJ000522960], the TR-FRET signal is listed as −81.49.

In turn, `Clc1ccc2c(NCCCNCc3csc4ccccc34)ccnc2c1` [SJ000521033] came in with a TR-FRET signal of 33.38.

On to `CCCN(CCCNc1ccnc2cc(Cl)ccc12)Cc1c(F)cccc1OC` [SJ000357499], for which the TR-FRET signal was determined as 19.4.

Take `Clc1ccc2c(NCCCN(Cc3ccccc3)Cc3ccncc3)ccnc2c1` [SJ000312679]: the TR-FRET signal was −5.573.

With `Clc1ccc(CN(CCCNc2ccnc3cc(Cl)ccc23)Cc2ccccc2)c(Cl)c1` [SJ000361184], the TR-FRET signal is reported as 25.5.

For the compound `CCCN(CCCNc1ccnc2cc(Cl)ccc12)CCC(C)c1ccccc1` (stereo not drawn) [SJ000357573], the TR-FRET signal is 24.98.

Take `CCCN(CCCNc1ccnc2cc(C(F)(F)F)ccc12)CC1CCOC1` (stereo not drawn) [SJ000575190]: the TR-FRET signal stood at 1.787.

As for `CCCN(CCCNc1c2ccc(Cl)cc2nc2ccc(OC)cc12)Cc1cccc(F)c1` [SJ000520945], the TR-FRET signal is reported as −90.13.

As for `Clc1ccc2c(NCCCN(Cc3ccccc3)CC3CC3)ccnc2c1` [SJ000357483], the TR-FRET signal turned out to be 21.06.

`Clc1ccc2c(NCCCNCC3CC3)ccnc2c1` [SJ000361101] gave a TR-FRET signal of 11.47.

With `CCOC(=O)c1cnc2c(C)cc(Cl)cc2c1NCCCN1CCOCC1` [SJ000174094], the TR-FRET signal is given as −10.52.

`Cc1ccc(CN(CCCNc2ccnc3cc(Cl)ccc23)Cc2ccccc2)s1` [SJ000312673]: the TR-FRET signal is on record as 4.629.

In turn, `O=[N+]([O-])c1ccccc1-c1ccc(CNCCCNc2ccnc3cc(Cl)ccc23)o1` [SJ000523068] had a TR-FRET signal of 21.65.

For `CCCN(CCCNc1c2ccc(Cl)cc2nc2ccc(OC)cc12)Cc1c(C)cc(C)cc1C` [SJ000520934], the TR-FRET signal was −46.32.

Consider `CCCN(CCCNc1ccnc2cc(C(F)(F)F)ccc12)Cc1cccc(F)c1` [SJ000521008], for which the TR-FRET signal came to 27.85.

With `CCCCCN(CCC)CCCNc1ccnc2cc(Cl)ccc12` [SJ000522754], the TR-FRET signal was 16.29.

On to `CCOC(=O)c1cnc2c(Cl)cc(Cl)cc2c1NCCCN1CCOCC1` [SJ000176476], for which the TR-FRET signal is −2.118.

`CCCN(CCCNc1ccnc2cc(C(F)(F)F)ccc12)Cc1ccc(F)cc1` [SJ000523070] registered a TR-FRET signal of 26.44.

The compound `Clc1ccc2c(NCCCNCc3ccc(Br)s3)ccnc2c1` [SJ000575193] gave a TR-FRET signal of 15.34.

On to `CCCN(CCCNc1ccnc2cc(Cl)ccc12)Cc1ccc(Cl)cc1Cl` [SJ000523043], for which the TR-FRET signal turned out to be 12.1.

In the case of `CCCN(CCCNc1c2ccc(Cl)cc2nc2ccc(OC)cc12)Cc1cc(F)cc(F)c1O` [SJ000522982], the TR-FRET signal amounted to 2.045.

With `CCCCCCN(CCC)CCCNc1ccnc2cc(Cl)ccc12` [SJ000523048], the TR-FRET signal is reported as 1.317.

As for `CCCN(CCCNc1ccnc2cc(C(F)(F)F)ccc12)Cc1ccc(OC)c(OC)c1` [SJ000523079], the TR-FRET signal is 14.66.

`CC(C)CCN(CCCNc1ccnc2cc(Cl)ccc12)Cc1ccccc1` [SJ000311183] registered a TR-FRET signal of 2.673.

`CCCN(CCCNc1ccnc2cc(Cl)ccc12)Cc1ccc(C)o1` [SJ000357437] showed a TR-FRET signal of 20.15.

For the compound `COc1ccc(F)cc1CN(CCCNc1ccnc2cc(Cl)ccc12)Cc1ccccc1` [SJ000357495], the TR-FRET signal amounted to 6.683.

`CCCN(CCCNc1ccnc2cc(Cl)ccc12)Cc1ccc(-c2ccccc2[N+](=O)[O-])o1` [SJ000523044] returned a TR-FRET signal of 9.266.

For `CCCN(CCCNc1ccnc2cc(C(F)(F)F)ccc12)CC(CC)CC` [SJ000361269], the TR-FRET signal is listed as 30.66.

Take `FC(F)(F)Oc1ccc(CN(CCCNc2ccnc3cc(Cl)ccc23)Cc2ccccc2)cc1` [SJ000520460]: the TR-FRET signal stood at 25.05.

For the compound `CCCCN(CCC)CCCNc1ccnc2cc(Cl)ccc12` [SJ000357571], the TR-FRET signal was 12.78.

`CCCN(CCCNc1ccnc2cc(C(F)(F)F)ccc12)Cc1nc(C)cs1` [SJ000521010] yielded a TR-FRET signal of 0.8927.

In the case of `CCCN(CCCNc1c2ccc(Cl)cc2nc2ccc(OC)cc12)Cc1cncc(Br)c1` [SJ000522975], the TR-FRET signal is −89.08.

On to `Clc1ccc2c(NCCCN(CCc3ccccc3)Cc3ccccc3)ccnc2c1` [SJ000357580], for which the TR-FRET signal was 14.41.

Compound `CCCN(CCCNc1ccnc2cc(Cl)ccc12)Cc1ccccn1` [SJ000522743] showed a TR-FRET signal of 1.313.

`CCCN(CCCNc1c2ccc(Cl)cc2nc2ccc(OC)cc12)Cc1ccncc1` [SJ000520918]: the TR-FRET signal was −1.797.

`Clc1ccc2c(NCCCNCc3cncc(Br)c3)ccnc2c1` [SJ000521037] showed a TR-FRET signal of 7.014.
